Experiments:
[1] = system: total testosterone; test: Example 3 study in hypogonadal men: morning serum total testosterone (ITT); format: in vivo, human
Method: (§1) A randomized, double-blind, placebo controlled, parallel-group study of once-daily doses of fispemifene (100, 200, and 300 mg/day) given for 4 weeks was conducted in a population of hypogonadal men. Subjects were required to meet all of the following inclusion criteria at screening and prior to randomization to be eligible for the study:
(§2) There were 77 subjects total. The number of subjects randomized to the 100 mg fispemifene, 200 mg fispemifene, 300 mg fispemifene, and placebo arms were 21, 21, 19, and 16, respectively.
(§3) Subjects were randomly assigned to one of four treatment groups in a 1:1:1:1 ratio: • Treatment A (100 mg): fispemifene 100 mg+placebo+placebo; • Treatment B (200 mg): fispemifene 100 mg+fispemifene 100 mg+placebo; • Treatment C (300 mg): fispemifene 100 mg+fispemifene 100 mg+fispemifene 100 mg; and • Treatment D (Placebo): placebo+placebo+placebo.
(§4) Subjects took one dose (three capsules) of study medication once a day at home for 4 weeks. Capsules were to be taken in the morning immediately after breakfast, with the exception of the morning of the Week 4 visit. Capsules were not to be taken on the morning of the Week 4 visit because trough plasma levels of fispemifene were determined by a blood sample taken at this visit. Each subject was randomly assigned to treatment with one of the 3 different dose regimens of fispemifene or placebo vehicle. Each subject received a 4 week supply of study drug.
(§5) Blood samples were taken from the subjects within 1 week prior to dosing with study drug to establish baseline values; after 2 and 4 weeks of randomization; and 2 weeks after the last dose of study drug. Serum was prepared from those samples and used to determine the mean % change from baseline in total testosterone, free testosterone, SHBG (sex hormone-binding globulin), DHT (dihydrotestosterone), E2 (estradiol), LH (luteinizing hormone), FSH (follicle stimulating hormone), and inhibin B.
The primary efficacy endpoint was defined as percent change from baseline in morning total testosterone levels at Week 4. The intent-to-treat (“ITT”) population was the primary population for analysis. The secondary efficacy endpoints included:
2. Percent change from baseline in total testosterone levels at Weeks 2 and 6; and […]

[2] = system: LH (luteinizing hormone); test: Example 3 study in hypogonadal men: serum LH (ITT); format: in vivo, human; conditions: for LH, Max / LH, Mean ± SD / LH, Median / LH, Min: Baseline (Visit 2)
Method: as §1, §2, §3, §4, §5
3. Percent change from baseline in SHBG, DHT, E2, LH, FSH, inhibin B, and testosterone/E2 ratio at Weeks 2, 4, and 6.

[3] = 100 mg/day, Week 6 (2 weeks after discontinuation)
[4] = 100 mg/day, to Week 6 (2 weeks after discontinuation)
[5] = 200 mg/day, Week 6 (2 weeks after discontinuation)
[6] = 200 mg/day, to Week 6 (2 weeks after discontinuation)
[7] = 300 mg/day, Week 6 (2 weeks after discontinuation)
[8] = 300 mg/day, to Week 6 (2 weeks after discontinuation)

Structure (SMILES): OCCOCCOc1ccc(/C(=C(/CCCl)c2ccccc2)c2ccccc2)cc1 [Fispemifene, (Z)-2-{2-[4-(4-Chloro-1,2-diphenylbut-1-enyl)phenoxy]ethoxy}ethanol]
- Total Testosterone, Max ([1]; 100 mg/day, Baseline (Visit 2)): 347.0 ng/dL
- Total Testosterone, Mean ± SD ([1]; 100 mg/day, Baseline (Visit 2)): 248.6 ± 68.90 ng/dL
- Total Testosterone, Median ([1]; 100 mg/day, Baseline (Visit 2)): 266.0 ng/dL
- Total Testosterone, Min ([1]; 100 mg/day, Baseline (Visit 2)): 101.0 ng/dL
- Total Testosterone, Max ([1]; 100 mg/day, Week 2): 585.0 ng/dL
- Total Testosterone, Mean ± SD ([1]; 100 mg/day, Week 2): 369.9 ± 88.23 ng/dL
- Total Testosterone, Median ([1]; 100 mg/day, Week 2): 350.0 ng/dL
- Total Testosterone, Min ([1]; 100 mg/day, Week 2): 235.0 ng/dL
- Total Testosterone, Max ([1]; 100 mg/day, Week 4): 535.0 ng/dL
- Total Testosterone, Mean ± SD ([1]; 100 mg/day, Week 4): 371.6 ± 83.36 ng/dL
- Total Testosterone, Median ([1]; 100 mg/day, Week 4): 353.0 ng/dL
- Total Testosterone, Min ([1]; 100 mg/day, Week 4): 246.0 ng/dL
- Total Testosterone, Max [1, 3]: 414.0 ng/dL
- Total Testosterone, Mean ± SD [1, 3]: 271.9 ± 69.21 ng/dL
- Total Testosterone, Median [1, 3]: 265.0 ng/dL
- Total Testosterone, Min [1, 3]: 121.0 ng/dL
- Total Testosterone, % Change from Baseline, Max ([1]; 100 mg/day, to Week 2): 133%
- Total Testosterone, % Change from Baseline, Median ([1]; 100 mg/day, to Week 2): 45%
- Total Testosterone, % Change from Baseline, Min ([1]; 100 mg/day, to Week 2): 14%
- Total Testosterone, % Change from Baseline, Max ([1]; 100 mg/day, to Week 4): 198%
- Total Testosterone, % Change from Baseline, Median ([1]; 100 mg/day, to Week 4): 35%
- Total Testosterone, % Change from Baseline, Min ([1]; 100 mg/day, to Week 4): 7%
- Total Testosterone, % Change from Baseline, Max [1, 4]: 119%
- Total Testosterone, % Change from Baseline, Median [1, 4]: 11%
- Total Testosterone, Max ([1]; 200 mg/day, Baseline (Visit 2)): 334.0 ng/dL
- Total Testosterone, Mean ± SD ([1]; 200 mg/day, Baseline (Visit 2)): 249.1 ± 60.90 ng/dL
- Total Testosterone, Median ([1]; 200 mg/day, Baseline (Visit 2)): 253.0 ng/dL
- Total Testosterone, Min ([1]; 200 mg/day, Baseline (Visit 2)): 133.0 ng/dL
- Total Testosterone, Max ([1]; 200 mg/day, Week 2): 497.0 ng/dL
- Total Testosterone, Mean ± SD ([1]; 200 mg/day, Week 2): 370.0 ± 72.44 ng/dL
- Total Testosterone, Median ([1]; 200 mg/day, Week 2): 354.0 ng/dL
- Total Testosterone, Min ([1]; 200 mg/day, Week 2): 238.0 ng/dL
- Total Testosterone, Max ([1]; 200 mg/day, Week 4): 626.0 ng/dL
- Total Testosterone, Mean ± SD ([1]; 200 mg/day, Week 4): 387.3 ± 107.39 ng/dL
- Total Testosterone, Median ([1]; 200 mg/day, Week 4): 372.0 ng/dL
- Total Testosterone, Min ([1]; 200 mg/day, Week 4): 241.0 ng/dL
- Total Testosterone, Max [1, 5]: 539.0 ng/dL
- Total Testosterone, Mean ± SD [1, 5]: 276.2 ± 97.28 ng/dL
- Total Testosterone, Median [1, 5]: 240.0 ng/dL
- Total Testosterone, Min [1, 5]: 162.0 ng/dL
- Total Testosterone, % Change from Baseline, Max ([1]; 200 mg/day, to Week 2): 142%
- Total Testosterone, % Change from Baseline, Median ([1]; 200 mg/day, to Week 2): 48%
- Total Testosterone, % Change from Baseline, Min ([1]; 200 mg/day, to Week 2): 17%
- Total Testosterone, % Change from Baseline, Median ([1]; 200 mg/day, to Week 4): 60%
- Total Testosterone, % Change from Baseline, Max [1, 6]: 79%
- Total Testosterone, % Change from Baseline, Median [1, 6]: 11%
- Total Testosterone, Max ([1]; 300 mg/day, Baseline (Visit 2)): 348.0 ng/dL
- Total Testosterone, Mean ± SD ([1]; 300 mg/day, Baseline (Visit 2)): 234.2 ± 77.69 ng/dL
- Total Testosterone, Median ([1]; 300 mg/day, Baseline (Visit 2)): 246.0 ng/dL
- Total Testosterone, Min ([1]; 300 mg/day, Baseline (Visit 2)): 17.0 ng/dL
- Total Testosterone, Max ([1]; 300 mg/day, Week 2): 526.0 ng/dL
- Total Testosterone, Mean ± SD ([1]; 300 mg/day, Week 2): 379.2 ± 122.04 ng/dL
- Total Testosterone, Median ([1]; 300 mg/day, Week 2): 427.0 ng/dL
- Total Testosterone, Min ([1]; 300 mg/day, Week 2): 13.0 ng/dL
- Total Testosterone, Max ([1]; 300 mg/day, Week 4): 643.0 ng/dL
- Total Testosterone, Mean ± SD ([1]; 300 mg/day, Week 4): 430.7 ± 163.39 ng/dL
- Total Testosterone, Median ([1]; 300 mg/day, Week 4): 479.0 ng/dL
- Total Testosterone, Min ([1]; 300 mg/day, Week 4): 8.0 ng/dL
- Total Testosterone, Max [1, 7]: 423.0 ng/dL
- Total Testosterone, Mean ± SD [1, 7]: 279.2 ± 102.84 ng/dL
- Total Testosterone, Median [1, 7]: 293.0 ng/dL
- Total Testosterone, Min [1, 7]: 16.0 ng/dL
- Total Testosterone, % Change from Baseline, Max ([1]; 300 mg/day, to Week 2): 101%
- Total Testosterone, % Change from Baseline, Median ([1]; 300 mg/day, to Week 2): 65%
- Total Testosterone, % Change from Baseline, Max ([1]; 300 mg/day, to Week 4): 181%
- Total Testosterone, % Change from Baseline, Median ([1]; 300 mg/day, to Week 4): 80%
- Total Testosterone, % Change from Baseline, Max [1, 8]: 77%
- Total Testosterone, % Change from Baseline, Median [1, 8]: 14%
- effect on serum total testosterone concentration ([1]; hypogonadal men, within 14 days from the start of treatment, maintained during treatment): clinically and statistically significant and dose dependent increase to, but not beyond, the normal range
- LH, Max ([2]; 100 mg/day): 13.50 IU/L
- LH, Mean ± SD ([2]; 100 mg/day): 4.43 ± 2.438 IU/L
- LH, Median ([2]; 100 mg/day): 4.10 IU/L
- LH, Min ([2]; 100 mg/day): 1.50 IU/L
- LH, % Change from Baseline, Max ([2]; 100 mg/day, to Week 2): 141%
- LH, % Change from Baseline, Mean ± SD ([2]; 100 mg/day, to Week 2): 0.39 ± 0.00496%
- LH, % Change from Baseline, Median ([2]; 100 mg/day, to Week 2): 29%
- LH, % Change from Baseline, Max ([2]; 100 mg/day, to Week 4): 203%
- LH, % Change from Baseline, Median ([2]; 100 mg/day, to Week 4): 49%
- LH, % Change from Baseline, Max [2, 4]: 100%
- LH, % Change from Baseline, Median [2, 4]: 0%
- LH, Max ([2]; 200 mg/day): 11.60 IU/L
- LH, Mean ± SD ([2]; 200 mg/day): 4.25 ± 2.028 IU/L
- LH, Median ([2]; 200 mg/day): 3.60 IU/L
- LH, Min ([2]; 200 mg/day): 1.00 IU/L
- LH, % Change from Baseline, Max ([2]; 200 mg/day, to Week 2): 123%
- LH, % Change from Baseline, Median ([2]; 200 mg/day, to Week 2): 54%
- LH, % Change from Baseline, Max ([2]; 200 mg/day, to Week 4): 137%
- LH, % Change from Baseline, Median ([2]; 200 mg/day, to Week 4): 52%
- LH, % Change from Baseline, Max [2, 6]: 80%
- LH, % Change from Baseline, Median [2, 6]: 19%
- LH, Max ([2]; 300 mg/day): 8.00 IU/L
- LH, Mean ± SD ([2]; 300 mg/day): 3.62 ± 1.506 IU/L
- LH, Median ([2]; 300 mg/day): 3.20 IU/L
- LH, Min ([2]; 300 mg/day): 1.90 IU/L
- LH, % Change from Baseline, Max ([2]; 300 mg/day, to Week 2): 134%
- LH, % Change from Baseline, Median ([2]; 300 mg/day, to Week 2): 63%
- LH, % Change from Baseline, Max ([2]; 300 mg/day, to Week 4): 178%
- LH, % Change from Baseline, Median ([2]; 300 mg/day, to Week 4): 42%
- LH, % Change from Baseline, Max [2, 8]: 84%
- LH, % Change from Baseline, Median [2, 8]: 19%
- effect on serum LH levels ([2]; hypogonadal men, 100-300 mg/day for 4 weeks): increased
